Results on 14 molecules are retold here after PubChem BioAssay (NCI).

Structures are written as SMILES.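 Cells were grown in 96-well plates and exposed to each compound for 48 hours at five concentrations; endpoints were interpolated linearly between bracketing concentrations, or set to the highest concentration if not reached. The concentration for 50% growth inhibition is given as GI50. TGI: concentration producing complete growth inhibition.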 Some results are limits rather than exact numbers.

Test systems include BT-549 breast; HCT-15 colon; HL-60(TB) leukemia; HS 578T breast; HT29 colon; LOX IMVI melanoma; SR leukemia; SW-620 colon; T-47D breast; UACC-257 melanoma.
What all share (test): NCI anticancer screen, dose series, 48 h

For `COC1CC2C=C(C)/C=C/C=C/C(=O)NC(c3ccccc3)C/C=C/CCC(O)CC(=O)C2=C1O` (stereo not given), the GI50 with BT-549 breast is 0.261 µM; in the test on HCT-15 colon, 0.274 µM; in the test on HL-60(TB) leukemia, 0.153 µM; with HS 578T breast it was 0.393 µM; with HT29 colon it was 0.238 µM; in the test with LOX IMVI melanoma, 0.297 µM. Moreover, the GI50 with SR leukemia was 0.0956 µM; with SW-620 colon, 0.31 µM; in the test with T-47D breast it was 0.264 µM; with UACC-257 melanoma, 0.186 µM. Besides, the TGI in the test with BT-549 breast stood at 1.17 µM; with HCT-15 colon, 1.29 µM; in the test with HL-60(TB) leukemia, 0.406 µM; with HS 578T breast, 1.91 µM; with HT29 colon, 0.854 µM; with LOX IMVI melanoma, 1.22 µM. The TGI worked out at 0.794 µM with SR leukemia, 1.36 µM in the test on SW-620 colon, 0.871 µM in the test on T-47D breast and 0.577 µM in the test on UACC-257 melanoma.
For the molecule `Cc1cc(C)c(C[N+](C)(C)C)c(C)c1C`, the GI50 with BT-549 breast was 0.619 µM; with HCT-15 colon it was 0.313 µM; in the test with HL-60(TB) leukemia it was 0.496 µM; with HS 578T breast it was 0.338 µM; in the test on HT29 colon it was 0.388 µM; in the test with LOX IMVI melanoma, 0.306 µM. For the same molecule, the GI50 with SR leukemia was 0.821 µM; with SW-620 colon it was 0.32 µM; with T-47D breast, 0.292 µM; with UACC-257 melanoma, 0.465 µM. For the same molecule, the TGI with BT-549 breast is 7.36 µM; with HCT-15 colon it was 19.4 µM; in the test on HL-60(TB) leukemia, greater than 24.7 µM; with HS 578T breast, 9.94 µM; in the test with HT29 colon it was 17.4 µM; in the test with LOX IMVI melanoma it was 9.13 µM. Further, the TGI with SR leukemia was greater than 41.1 µM; in the test with SW-620 colon, greater than 100 µM; with T-47D breast, 9.92 µM; in the test with UACC-257 melanoma it was 6.69 µM.
`CC(C)c1ccc(/C(C(=O)O)=C(\O)C(=O)O)cc1`: the TGI in the test on BT-549 breast, in the test on HCT-15 colon, in the test with HL-60(TB) leukemia, in the test with HS 578T breast, with HT29 colon and in the test with LOX IMVI melanoma was greater than 100 µM each time. Moreover, the TGI in the test on SR leukemia, in the test on SW-620 colon, in the test with T-47D breast and in the test with UACC-257 melanoma was greater than 100 µM throughout.
Turning to `C[C@]1(CO)[C@H]2CC[C@@]34C=C[C@@](CO)(CC[C@H]3[C@]2(C)CC[C@H]1O)C4`, the TGI with BT-549 breast, with HCT-15 colon, with HL-60(TB) leukemia, in the test on HS 578T breast, in the test on HT29 colon and in the test with LOX IMVI melanoma was greater than 100 µM throughout. In addition, the TGI was greater than 100 µM with SR leukemia, greater than 100 µM with SW-620 colon, 84.3 µM in the test on T-47D breast and greater than 100 µM in the test with UACC-257 melanoma.
Turning to `CCCCNN`, the TGI with BT-549 breast, in the test with HCT-15 colon, with HL-60(TB) leukemia, with HS 578T breast, with HT29 colon and in the test on LOX IMVI melanoma was greater than 100 µM each time. The TGI in the test on SR leukemia, in the test on SW-620 colon, with T-47D breast and in the test with UACC-257 melanoma was greater than 100 µM throughout.
Turning to `Cc1nc2sc(C(=O)Nc3cccc4ccccc34)c(N)c2cc1C(=O)c1ccccc1`, the GI50 was 1.87 µM in the test with BT-549 breast; 1.41 µM with HCT-15 colon; 1.45 µM in the test with HL-60(TB) leukemia; 1.3 µM with HS 578T breast; 1.81 µM with HT29 colon; 2.56 µM with LOX IMVI melanoma. Also, the GI50 is 0.632 µM in the test on SR leukemia, 1.71 µM with SW-620 colon, 3.64 µM with T-47D breast and greater than 50 µM in the test on UACC-257 melanoma. Moreover, the TGI with BT-549 breast was greater than 50 µM; in the test on HCT-15 colon, greater than 50 µM; with HL-60(TB) leukemia it was 4.31 µM; with HS 578T breast, greater than 50 µM; in the test with HT29 colon, greater than 50 µM; in the test with LOX IMVI melanoma it was greater than 50 µM. In addition, the TGI with SR leukemia, in the test on SW-620 colon, with T-47D breast and in the test with UACC-257 melanoma was greater than 50 µM throughout.
With `C=C1C(=O)OC2CC1C(O)C/C(C)=C/CC/C(C)=C/C(O)CC2C` (stereo not given), the TGI with BT-549 breast came to 6.45 µM; in the test on HCT-15 colon it was 4.95 µM; in the test with HL-60(TB) leukemia, 1.32 µM; in the test on HS 578T breast, 11 µM; with HT29 colon it was 4.61 µM; in the test with LOX IMVI melanoma, 2.74 µM. Further, the TGI was 2.61 µM in the test with SR leukemia, 5.62 µM in the test on SW-620 colon, 4.48 µM in the test on T-47D breast and 10.3 µM with UACC-257 melanoma.
As to `N#Cc1cnc2cc(OC[C@@H](O)CO)c(NC(=O)CC3CSSC3)cc2c1Nc1ccc(OCc2cccc(F)c2)c(Cl)c1`, the GI50 was 0.155 µM in the test with BT-549 breast; 1.63 µM in the test with HCT-15 colon; 0.589 µM in the test with HL-60(TB) leukemia; 0.105 µM in the test with HS 578T breast; 0.225 µM in the test on HT29 colon; 2.17 µM with LOX IMVI melanoma. For the same molecule, the GI50 in the test on SR leukemia is 0.0408 µM; in the test on SW-620 colon, 0.216 µM; in the test with T-47D breast it was 0.646 µM; with UACC-257 melanoma, 0.195 µM. Moreover, the TGI in the test with BT-549 breast was found to be 0.523 µM; with HCT-15 colon, 6.51 µM; in the test on HL-60(TB) leukemia, 1.47 µM; with HS 578T breast it was 0.282 µM; with HT29 colon it was 0.759 µM; with LOX IMVI melanoma, 3.08 µM. Besides, the TGI in the test on SR leukemia turned out to be 0.275 µM; in the test with SW-620 colon, 0.87 µM; with T-47D breast, 1.59 µM; with UACC-257 melanoma it was 0.829 µM.
Regarding `CN1CCCN(C)C1c1cc([N+](=O)[O-])ccc1O`, the TGI was greater than 100 µM in the test on BT-549 breast; greater than 100 µM in the test on HCT-15 colon; 61.4 µM in the test with HL-60(TB) leukemia; 67.8 µM in the test with HS 578T breast; greater than 100 µM with HT29 colon; greater than 100 µM in the test with LOX IMVI melanoma. For the same molecule, the TGI with SR leukemia was 59.3 µM; in the test on SW-620 colon, greater than 100 µM; in the test on T-47D breast, greater than 100 µM; in the test on UACC-257 melanoma it was 61.3 µM.
In the case of `NNc1cccc(/C=C/c2ccccc2)cc1=O`, the GI50 in the test with BT-549 breast is 33.5 µM; in the test with HCT-15 colon, 3.8 µM; with HL-60(TB) leukemia it was 3.97 µM; in the test with HS 578T breast, 18.5 µM; in the test on HT29 colon it was 10.7 µM; with LOX IMVI melanoma, 5.07 µM. Further, the GI50 in the test with SR leukemia was 3.85 µM; in the test on SW-620 colon it was 5.86 µM; in the test with T-47D breast, 5.36 µM; in the test on UACC-257 melanoma, 26.7 µM. Further, the TGI in the test with BT-549 breast, with HCT-15 colon, in the test on HL-60(TB) leukemia, with HS 578T breast, in the test with HT29 colon and in the test on LOX IMVI melanoma was greater than 100 µM throughout. The TGI in the test with SR leukemia was greater than 100 µM; with SW-620 colon, greater than 100 µM; in the test on T-47D breast, 92.5 µM; with UACC-257 melanoma, greater than 100 µM.
As to `Nc1ccc(S(=O)(=O)C23CC4CC(CC(C4)C2)C3)cc1`, the TGI with BT-549 breast, in the test on HCT-15 colon, in the test on HL-60(TB) leukemia, in the test on HS 578T breast, in the test with HT29 colon and in the test on LOX IMVI melanoma was greater than 100 µM in each case. Also, the TGI in the test on SR leukemia, with SW-620 colon, in the test on T-47D breast and with UACC-257 melanoma was greater than 100 µM each time.
For the molecule `CCOC(=O)C(=Cc1ccccc1[N+](=O)[O-])C(=O)OCC`, the GI50 in the test on BT-549 breast is 5.28 µM; in the test with HCT-15 colon, 1.83 µM; with HL-60(TB) leukemia it was 3.3 µM; in the test with HS 578T breast, 2.71 µM; in the test on HT29 colon, 3.27 µM; in the test on LOX IMVI melanoma, 1.58 µM. Moreover, the GI50 is 2.07 µM with SR leukemia, 2.12 µM with SW-620 colon, 3.68 µM in the test with T-47D breast and 3.25 µM with UACC-257 melanoma. Besides, the TGI in the test on BT-549 breast came out at 17.3 µM; in the test with HCT-15 colon it was 4.47 µM; with HL-60(TB) leukemia it was 45.5 µM; with HS 578T breast, 11.6 µM; in the test with HT29 colon it was 9.39 µM; in the test on LOX IMVI melanoma, 3.51 µM. The TGI in the test on SR leukemia was 30.1 µM; in the test with SW-620 colon, 4.85 µM; in the test on T-47D breast, 17.5 µM; in the test with UACC-257 melanoma, 14.3 µM.
`CC[C@@]1(O)C(=O)NCc2c1cc1n(c2=O)Cc2cc3c(N)cccc3nc2-1`: the GI50 in the test with BT-549 breast is 17.8 µM; in the test with HCT-15 colon it was 11.5 µM; in the test on HL-60(TB) leukemia it was 1.19 µM; in the test with HS 578T breast, greater than 17.4 µM; in the test with HT29 colon, 15.1 µM; in the test on LOX IMVI melanoma it was 0.468 µM. Further, the GI50 was 0.672 µM in the test with SR leukemia, 4.16 µM with SW-620 colon, 0.623 µM in the test on T-47D breast and 6.15 µM in the test with UACC-257 melanoma. The TGI with BT-549 breast was greater than 100 µM; with HCT-15 colon, greater than 100 µM; with HL-60(TB) leukemia, greater than 34.6 µM; with HS 578T breast it was greater than 64.3 µM; in the test with HT29 colon, greater than 100 µM; with LOX IMVI melanoma it was 9.5 µM. Also, the TGI is 5.35 µM in the test with SR leukemia, greater than 100 µM with SW-620 colon, greater than 19.9 µM in the test with T-47D breast and greater than 79.5 µM in the test with UACC-257 melanoma.
As for `O=c1nc(Nc2cccc(Cl)c2)oc2cc(Cl)oc(=O)c12`, the GI50 in the test on BT-549 breast is 22.5 µM; in the test with HCT-15 colon it was 5.82 µM; with HL-60(TB) leukemia it was 10.8 µM; with HS 578T breast it was 2.81 µM; with HT29 colon, 9.39 µM; in the test on LOX IMVI melanoma, 11.9 µM. For the same molecule, the GI50 in the test with SR leukemia is 2.88 µM; with SW-620 colon, 10.9 µM; in the test with T-47D breast, 5.29 µM; in the test with UACC-257 melanoma it was 10.3 µM. Further, the TGI is 95.7 µM with BT-549 breast; 28.3 µM with HCT-15 colon; 55.2 µM with HL-60(TB) leukemia; 17.4 µM in the test on HS 578T breast; 29.3 µM in the test on HT29 colon; greater than 100 µM in the test with LOX IMVI melanoma. The TGI worked out at 12.4 µM with SR leukemia, 29.9 µM in the test on SW-620 colon, 27.1 µM with T-47D breast and 23.9 µM in the test with UACC-257 melanoma.
